From patent US8394355B2, “Use of UTP for the diagnosis of stenoses and other conditions of restricted blood flow” (P2 science Aps, priority 2009, dated 2013)
Values joined by “and” are separate entries in the source; they are usually repeats but may differ in a detail not shown here. Equal entries are not always repeated.

Tested on: coronary arteries in humans with coronary artery disease
Assay: FFR during continuous intracoronary infusion via guiding catheter (Example 2)
Type: in vivo
Parameters: key to lowest FFR level / difference in FFR between adenosine and UTP / FFR / FFR Mean: FFR = Pd/Pa (distal/proximal coronary pressure ratio)
Conditions: for adverse effects during IC continuous infusion / % of patients with FFR ≦ 0.75 / % of patients with FFR ≦ 0.8: guiding catheter study; for % of patients with FFR ≦ 0.75 / % of patients with FFR ≦ 0.8: 240 μg/min (n = 23); for lowest FFR level: lowest mean over the dose response curve, ± 2SEM, P<0.05
Description: The study was performed in 23 patients undergoing elective coronary arteriography (CAG) due to repetitive episodes of typical ischemic chest pain or in patients with recent Non-ST Elevated Myocardial Infarction (>2 days from entry into study). In eligible patients with uni- or multivessel coronary artery disease, lesions with stenosis of at least 50% of their diameter and that were thought to require PCI on the basis of angiographic appearance and clinical data were identified.
In the first part of the experiment, FFR and Coronary Flow (velocity, CFR) were measured after the induction of coronary hyperemia by a continuous intracoronary infusion of UTP (Jena Bioscience GmbH, Germany) and adenosine in random order in a guide catheter (5F catheter, Cordis Corp.). Two UTP doses of 240 and 360 μg/min were tested. UTP was prepared by dissolving 100 mg of UTP trisalt (Sigma Aldrich) in 50 ml isotonic NaCl. Of this 50 ml solution, 40 ml was filter sterilized and added to sterile NaCl solution to a final volume of 500 ml, providing a 0.16 mg/ml concentration. 8-10 50 ml syringes of this solution can be prepared (2 syringes per FFR study). 3 ml/min=480 μg/min=0.9 μmol/min. Subjects thus received either 1.5 ml/min of UTP infusion or 2.25 mL/min of UTP infusion for a total of 3 minutes each. Patients also received adenosine (Sigma Aldrich) in the same eqipotent concentration.
All measurements were performed on at least 2 separate occasions to achieve a reproducible result with a mean value calculated. After each measurement, care was taken that APV returned to baseline before the administration of the next dose. For all measurements using both drugs and both routes of administration, changes in heart rate, blood pressure, and ECG were recorded.
In the second part of the experiment, a full dose response curve was generated for a gradual incremental increase in continuous UTP infusion while both CFR and FFR were measured simultaneously prior to percutaneous coronary intervention (PCI). Hyperemia was induced at 80 μg/min of continuous intracoronary UTP and adenosine, and the flow reserve values were compared (Table 1).
In the third part of the experiment, both CFR and FFR were measured simultaneously after percutaneous coronary intervention (PCI). Hyperemia was induced by either 240 or 360 μg/min of continuous intracoronary UTP and equipotent adenosine, and the flow reserve values were in some patients compared with the hyperemic response of a complete, proximal coronary occlusion for 30 s.
FFR is defined as the ratio of hyperemic flow in a stenotic artery to the hyperemic flow in the same artery if there was no stenosis present. FFR therefore expresses maximum hyperemic blood flow in a stenotic vessel as a fraction of its normal value. FFR can be calculated from intracoronary pressure measurements obtained during maximal hyperemia by the following equation: FFR═Pd−Pv/Pa−Pv→Pd/Pa, where Pa is the mean proximal coronary pressure (mean aortic pressure), Pd is the mean distal coronary pressure, and Pv is the mean central venous pressure. The coronary flow (velocity) reserve is the ratio of maximum to baseline hyperemic coronary flow velocity and is used as a surrogate for CFR. Using the Volcano Combomap®, APV throughout the cardiac phase was measured and CFR calculated from APV(hyperemia)/APV(basal).

[1] = mean of six patients, 80 μg/min

Compound | adverse effects during IC continuous infusion | % of patients with FFR ≦ 0.75 | % of patients with FFR ≦ 0.8 | lowest FFR level | FFR Mean [1] | FFR Mean (mean, 160 μg/min) | FFR Mean (mean, 240 μg/min) | FFR Mean (mean, 320 μg/min) | FFR Mean (mean, 400 μg/min) | other results
O=c1ccn([C@@H]2O[C@H](COP(=O)(O)OP(=O)(O)OP(=O)(O)O)C(O)[C@@H]2O)c(=O)[nH]1 (some centres unmarked) [UTP, Uridine 5-triphosphate] | None of the UTP-treated patients in the current trial had chest pain, dyspnea, second or 3 degree A-V block or changes in systemic blood pressure and heart rate | 47% | 65% | 0.74±0.13 | 0.74 | 0.77 | 0.79 | 0.78 | 0.79 | FFR in comparison to adenosine infusion (all 23 patients, IC 240 μg/min, p=0.003, FIG. 1): significantly decreased; time to induction of maximal hyperemia (all IC continuous infusion rates, versus adenosine): shorter; optimal dose for achieving maximal coronary hyperemia (guide catheter method): 80 to 400 µg/min; FFR (individual patients (row = patient no.), IC continuous infusion 80 μg/min, guide catheter): 0.73 and 0.79 and 0.88 and 0.56; FFR (individual patients, 160 μg/min): 0.90 and 0.73 and 0.79 and 0.86 and 0.56; FFR (individual patients, 240 μg/min): 0.89 (2×) and 0.73 and 0.79 and 0.87 and 0.55; FFR (individual patients, 320 μg/min): 0.90 and 0.89 and 0.72 and 0.77 and 0.86 and 0.56; FFR (individual patients, 400 μg/min): 0.90 and 0.92 and 0.56; difference in FFR between adenosine and UTP (standard deviation of 0.15-0.17, p=0.003): 0.05
Nc1ncnc2c1ncn2[C@@H]1O[C@H](CO)[C@@H](O)[C@H]1O [adenosine] | most patients felt uncomfortable chest pain and 2 patients had 3 degree A-V block | 39% | 43% | 0.81±0.11 | 0.86 | 0.81 | 0.81 | 0.82 | 0.82 | FFR (individual patients (row = patient no.), IC continuous infusion 80 μg/min, guide catheter, listed as ADO): 0.83 and 0.95 and 0.76 and 0.88; FFR (individual patients, 160 μg/min, listed as ADO): 0.80 and 0.95 and 0.60 and 0.96 and 0.75; FFR (individual patients, 240 μg/min, listed as ADO): 0.81 and 0.94 and 0.60 and 0.87 and 0.91 and 0.71; FFR (individual patients, 320 μg/min, listed as ADO): 0.79 and 0.96 and 0.54 and 1.02 and 0.89 and 0.70; FFR (individual patients, 400 μg/min, listed as ADO): 0.56 and 1.01 and 0.89
